For one experiment, the system named is AsPC-1. The experiment in a line: Cell growth inhibition assay (Cell Titer Glo), AsPC-1. Type of experiment: cell-based. The settings on record: Homo sapiens, ASPC1, 72 h; single agent; AsPC-1, KRAS G12D; 3 days. On the procedure: (§1) BxPC-3, HuP-T4, PL45, Panc-02-03, Mia-PaCa, HPAF-II, SW1990, Panc-08-13, Capan-1, AsPC-1, Capan-2, HPAC, YAPC and Panc-1 lines were used in the study. BxPC-3, Mia-PaCa, HPAF-11, SW1990, AsPC-1, Capan-2 and YAPC were cultured in RPMI 1640 medium (cat#72400 047, Invitrogen) containing 10% fetal bovine serum (FBS) (cat#SH30071.03, Hyclone). Capan-1 and HuP-T4 were cultured in RPMI 1640 medium containing 20% FBS. PL45 and PANC-1 lines were cultured in DMEM (ATCC 30-2002) containing 10% FBS. Panc-02-03 and Panc-08-13 were cultured in RPMI 1640 medium containing 15% fetal bovine serum and ITSX (51500-056, Gibco). HPAC was cultured in RPMI 1640 medium containing 5% FBS, ITSX, 40 ng/ml Hydrocortism, and 10 ng/ml EGF (85570C-1MG, SAFC Biosciences).
(§2) All cells were cultured for a minimum of 72 hours prior to cell plating. […] ATP levels were determined by adding Cell Titer Glo® (Promega) according to the manufacturer's protocol. Briefly, Cell Titer Glo® was added to each plate, incubated for 30 minutes and then the luminescent signal was read on the SpectraMax L plate reader with a 0.5 sec integration time.
(§3) Inhibition of cell growth was estimated after treatment with compound or combination of compounds for three days and the signal was compared to cells treated with vehicle (DMSO). Cell growth was calculated relative to vehicle (DMSO) treated control wells. […]

In the next experiment the test system is YAPC. Nature of the experiment: Cell growth inhibition assay (Cell Titer Glo), YAPC. Type of experiment: cell-based. Conditions: Homo sapiens, 72 h, single agent, KRAS G12V, 3 days. On the procedure:
as §1, §2, §3
For orientation: ATP-based viability assays read luminescence as a measure of living cells.

The test system of a further experiment is Panc-08-13. The experiment in a line: Cell growth inhibition assay (Cell Titer Glo), Panc-08-13. The experiment is classed as cell-based. Conditions: Homo sapiens, 72 h; single agent; Panc-08-13, KRAS G12D; 3 days. On the procedure: as §1, §2, §3
For another experiment, the system named is PL45. The experiment in a line: Cell growth inhibition assay (Cell Titer Glo), PL45. Type of experiment: cell-based. The settings on record: Homo sapiens, 72 h; single agent; PL45, KRAS G12D; 3 days. On the procedure:
as §1, §2, §3

The test system of experiment [1] is KRAS mutant tumor lines, HuP-T4, PL45, Panc-02-03 and Mia-PaCa. Nature of the experiment: Cell growth inhibition assay, four KRAS mutant lines. The settings on record: Homo sapiens; single agent; range over HuP-T4, PL45, Panc-02-03 and Mia-PaCa. Type of experiment: cell-based. On the procedure: as §1
(§4) All cells were cultured for a minimum of 72 hours prior to cell plating. Cells were assayed in a 96-well tissue culture plate (NUNC 136102) of RPMI medium containing 10% FBS for all cells at 1,000 cells per well. Approximately 24 hours after plating, cells were exposed to ten, three-fold serial dilutions of compound or the combination of the two agents at a constant molar to molar ratio of 1:1 Compound A to Compound B in RPMI media containing 10% FBS. Cells were incubated in the presence of compounds for 3 days. ATP levels were determined by adding Cell Titer Glo® (Promega) according to the manufacturer's protocol. Briefly, Cell Titer Glo® was added to each plate, incubated for 30 minutes and then the luminescent signal was read on the SpectraMax L plate reader with a 0.5 sec integration time.
as §3
(§5) Combination effects on potency were evaluated using Combination Index (CI) which was calculated with the back-interpolated IC50 values and the mutually non-exclusive equation derived by Chou and Talalay: CI=Da/IC50(a)+Db/IC50(b)+(Da×Db)/(IC50(a)×IC50(b)) […]
(§6) The combination effects on the response scale were quantified by Excess Over Highest Single Agent (EOHSA) based on the concept of nonlinear blending as described in detail by Liu et al, 2011. […] For single agent and combination treatments, cells were exposed to compounds at a fixed-dose-ratio, and dose response curves were fit to the experimental data and analyzed using regression models. At specified total dose levels of IC50 along the dose response curve, the dose combination (corresponding to IC50) was determined for making EOHSA statistical inferences. […]

In experiment [2] the test system is KRAS mutant lines HPAF-11, SW1990, Panc-08-13 and Capan-1. Described as above. Type of experiment: cell-based. The settings on record: Homo sapiens; single agent; over HPAF-11, SW1990, Panc-08-13 and Capan-1. The protocol:
as §1, §4, §3, §5, §6

The test system of the next experiment is Mia-PaCa. Nature of the experiment: Cell growth inhibition assay (Cell Titer Glo), Mia-PaCa. Type of experiment: cell-based. Conditions: Homo sapiens, MIA PaCa-2, 72 h, single agent, KRAS G12C, 3 days. On the procedure:
as §1, §2, §3

A further experiment deals with Panc-02-03. The experiment in a line: Cell growth inhibition assay (Cell Titer Glo), Panc-02-03. The experiment is classed as cell-based. The settings on record: Homo sapiens, Panc 02.03, 72 h; single agent; Panc-02-03, KRAS G12D; 3 days. The protocol: as §1, §2, §3
A further experiment relates to HPAC. Nature of the experiment: Cell growth inhibition assay (Cell Titer Glo), HPAC. Type of experiment: cell-based. The settings on record: Homo sapiens, 72 h, single agent, KRAS G12D, 3 days. The protocol:
as §1, §2, §3

In another experiment the test system is Panc-1. The experiment in a line: Cell growth inhibition assay (Cell Titer Glo), Panc-1. Type of experiment: cell-based, human. Conditions: for IC50: Homo sapiens, 72 h, single agent, Panc-1, KRAS G12D, 3 days; for sensitivity of cell growth (in words): KRAS mutant Panc-1 cells. The protocol: as §1, §4, §3, §5, §6
Another experiment concerns HPAF-II. Nature of the experiment: Cell growth inhibition assay (Cell Titer Glo), HPAF-II. Conditions: Homo sapiens, 72 h, single agent, KRAS G12D, 3 days. The experiment is classed as cell-based. On the procedure:
as §1, §2, §3

Another experiment deals with SW1990. The experiment in a line: Cell growth inhibition assay (Cell Titer Glo), SW1990. Type of experiment: cell-based. Conditions: Homo sapiens, 72 h; single agent; SW1990, KRAS G12D; 3 days. On the procedure:
as §1, §2, §3

The subject of another experiment is Capan-1. The experiment in a line: Cell growth inhibition assay (Cell Titer Glo), Capan-1. Type of experiment: cell-based. The settings on record: Homo sapiens, 72 h; single agent; Capan-1, KRAS G12V; 3 days. On the procedure: as §1, §2, §3
For a further experiment, the system named is HuP-T4. Nature of the experiment: Cell growth inhibition assay (Cell Titer Glo), HuP-T4. The experiment is classed as cell-based. Conditions: Homo sapiens, 72 h; single agent; HuP-T4, KRAS G12V; 3 days. The protocol: as §1, §2, §3
The subject of a further experiment is Capan-2. The experiment in a line: Cell growth inhibition assay (Cell Titer Glo), Capan-2. Type of experiment: cell-based. The settings on record: Homo sapiens, 72 h; single agent; Capan-2, KRAS G12V; 3 days. On the procedure: as §1, §2, §3
A further experiment relates to BxPC-3. Nature of the experiment: Cell growth inhibition assay (Cell Titer Glo), BxPC-3. The experiment is classed as cell-based. The settings on record: Homo sapiens, 72 h; single agent; BxPC-3, KRAS WT; 3 days. The protocol:
as §1, §2, §3

We go through two compounds from US8906879B2, “Combination for the treatment of cancer” (GlaxoSmithKline Intellectual Property (No. 2) Limited, priority 2010, dated 2014).

Take `CC(=O)Nc1cccc(-n2c(=O)n(C3CC3)c(=O)c3c(Nc4ccc(I)cc4F)n(C)c(=O)c(C)c32)c1` [Compound A, N-{3-[3-cyclopropyl-5-(2-fluoro-4-iodo-phenylamino)-6,8-dimethyl-2,4,7-trioxo-3,4,6,7-tetrahydro-2H-pyrido[4,3-d]pyrimidin-1-yl]phenyl}acetamide]: the 50% inhibitory concentration (IC50) in the experiment with AsPC-1 was 0.005 µM; in the experiment with YAPC it was > 1 µM; with Panc-08-13, 0.067 ± 0.014 µM; in the experiment on PL45 it was 0.015 ± 0.004 µM; in experiment [1], 0.001 to 0.059 µM; in experiment [2], 0.059 to 0.193 µM. In addition, the IC50 with Mia-PaCa was 0.059 ± 0.028 µM; with Panc-02-03, 0.032 ± 0.013 µM; in the experiment with HPAC it was 0.021 ± 0.006 µM; with Panc-1, > 1 µM; with HPAF-II it was 0.059 ± 0.053 µM; with SW1990, 0.062 ± 0.043 µM. The IC50 was determined as 0.193 ± 0.078 µM in the experiment on Capan-1, 0.001 ± 0.001 µM in the experiment on HuP-T4, 0.01 ± 0.001 µM in the experiment with Capan-2 and 0.014 µM in the experiment on BxPC-3. Besides, the “sensitivity of cell growth (in words)” value in the experiment on Panc-1 was “resistant”.
As for `Nc1ccn([C@@H]2O[C@H](CO)[C@@H](O)C2(F)F)c(=O)n1` [Compound B, 4-amino-1-(2-deoxy-2,2-difluoro-β-D-erythro-pentofuranosyl)pyrimidin-2(1H)-on 2′,2′-difluoro-2′-deoxycytidine], the IC50 was > 1 µM in the experiment on AsPC-1; 0.012 ± 0.008 µM in the experiment on YAPC; > 1 µM in the experiment with Panc-08-13; 0.013 ± 0.002 µM in the experiment with PL45; 0.007 to 0.088 µM in experiment [1]; > 1 µM in experiment [2]. Moreover, the IC50 with Mia-PaCa was 0.021 ± 0.001 µM; in the experiment with Panc-02-03, 0.088 ± 0.017 µM; in the experiment with HPAC it was > 1 µM; in the experiment with Panc-1 it was > 1 µM; with HPAF-II, > 1 µM; with SW1990, ≥ 1 µM. Moreover, the IC50 in the experiment on Capan-1 was > 1 µM; with HuP-T4, 0.007 ± 0.005 µM; in the experiment with Capan-2 it was > 1 µM; with BxPC-3, 0.008 µM. In addition, the “sensitivity of cell growth (in words)” value in the experiment on Panc-1 is listed as “resistant”.

The IC50 is the concentration at which inhibition is half-maximal.
